Reference: patent publication US20140162974A1, “METHODS FOR MODULATION OF PHOSPHORUS AND FGF23” (Luitpold Pharmaceuticals, Inc., priority 2012, published 2014)

Key:
[1] = Intra-arterial, perivenous, or intravenous tolerance studies; assay type: in vivo, rabbit; conditions: intra-arterial
[2] = tested on: dextran antibodies; assay: Dextran antigenicity test
Excerpt: (§1) FCM can mimic physiologically occurring ferritin. FCM is metabolized by the glycolytic pathway.

[3] = tested on: hemoglobin, ferritin, TSAT; assay: VIT-30 efficacy: hemoglobin and iron indices; assay type: in vivo, human
Description: (§2) Study visits were on Days 0, 3, 7, 10, 14, 28, 56, and 120. A phone assessment occurred on Day 90.
The Venofer Group received 5 doses of Venofer, 200 mg for a total dose of 1,000 mg.
For Venofer, subjects received, as an IV push injection over 2 to 5 minutes, 200 mg on Days 0, 7, and 14 with 2 additional doses given: 1 between Days 0 and 7 and the other between Days 7 and 14 (i.e., for a total of 5 doses [1,000 mg]).
For efficacy, the primary efficacy measure was the mean change from baseline to the highest observed hemoglobin any time between baseline and end of treatment period (Day 56) or time of intervention. Supportive efficacy measures included the following: (a) proportion of subjects achieving an increase in hemoglobin of ≧1 g/dL any time between baseline and end of treatment period (Day 56) or time of intervention; (b) mean change from baseline to the highest observed ferritin any time between baseline and treatment period (Day 56) or time of intervention; (c) mean change from baseline to the highest observed TSAT any time between baseline and treatment period (Day 56) or time of intervention; and (d) mean change from baseline to the pre-dosing value on Day 7 for hemoglobin, ferritin, and TSAT.
The hemoglobin baseline was defined as the average of the last 2 hemoglobin values from the central laboratory prior to the first dose of study drug. If only 1 centrally-measured hemoglobin value was available prior to the first dose of study drug, the single value was used for baseline. Non-inferiority was concluded if the lower limit of the 2-sided CI was ≧−0.075. This non-inferiority margin preserved >50% of the difference from oral iron observed previously.
The mean change from baseline to highest TSAT and ferritin was assessed for treatment group differences with the 95% 2-sided CI (based on normal distribution, assuming equal variances). Mean change from baseline to each scheduled visit was similarly assessed for hemoglobin, TSAT, ferritin, serum iron, total iron binding capacity, and unsaturated iron binding capacity. Baseline was calculated as described above. Assessments were assigned to scheduled visits as follows (if the assessment was on a dosing day for IV iron, the assessment before dosing was selected): • Day 7: Assessments on Days 4 through 10. • Day 14: Assessments on Days 11 through 21. • Day 28: Assessments on Days 22 through 35. • Day 56: Assessments on Days 50 through 63.

[4] = tested on: serum phosphate; conditions: previous studies (2-10); cited from earlier work
[5] = Acute toxicity relative to iron sucrose; conditions: in vivo
Excerpt: as §1

[6] = in vivo, cited from earlier work
[7] = In vitro and in vivo mutagenicity tests
[8] = Single-dose toxicity studies; assay type: in vivo, rodents and dogs
[9] = tested on: serum phosphate; assay: VIT-30: serum phosphate; assay type: in vivo, human
Excerpt: FIG. 1 is a line and scatter plot showing mean changes in phosphate (left vertical axis) or changes in FGF-23 (right vertical axis) with respect to baseline value at each study day (0, 7, 14, 28, or 56) as indicated on the Horizontal (X) axis for trial VIT30. […] Further details regarding methodology are provided in Example 2.
as §2
Clinical laboratory variables were presented in 2 ways. First, change from baseline to Day 7, Day 14, Day 28, and Day 56 were summarized. Baseline was defined as the last value obtained prior to the first injection of study drug. Second, the number and proportion of subjects with treatment-emergent PCS laboratory values were tabulated. Treatment-emergent PCS values were those in which the baseline value was normal and post-baseline value was abnormal (i.e., met Grade 3 or Grade 4 toxicity criteria from the National Cancer Institute Common Toxicity Criteria for Adverse Events, Version 3.0 [NCI CTCAE]).
For serum phosphate and platelet count, change from baseline to the smallest value after baseline and final value were also summarized. For subjects whose baseline value was above the lower reference range and who had at least 1 value below the lower reference range after baseline, the following were summarized: the number of days from baseline to the first value below the lower reference range and the number of days from the first value below the lower reference range until the first succeeding value within the reference range.

polynuclear iron (III)-hydroxide 4(R)-(poly-(1→4)-O-α-glucopyranosyl)-oxy-2(R),3(S),5(R),6-tetrahydroxy-hexanoate [FCM]
treatment-related local tissue irritation [1]: No treatment-related local tissue irritation was observed | specific responses in a dextran antigenicity test [2]: no specific responses | proportion of subjects with an increase in hemoglobin ≧1.0 g/dL, FCM compared with Venofer ([3]; anytime between baseline and Day 56 or time of intervention): statistically significantly greater | mean increases in ferritin, TSAT, serum iron and mean decreases in TIBC and unsaturated IBC, FCM compared with Venofer ([3]; baseline to highest value between baseline and Day 56 or time of intervention): statistically significantly greater | mean increase in hemoglobin from baseline to highest value, FCM compared with Venofer ([3]; between baseline and Day 56 or time of intervention): statistically significantly greater | noninferiority test on mean increase in hemoglobin, FCM to Venofer ([3]; lower limit of 2-sided 95% CI ≧−0.2): noninferiority | noninferiority test on proportion with hemoglobin increase ≧1.0 g/dL, FCM to Venofer ([3]; overall population, 2-sided 95% CI): noninferiority | occurrence of transient reductions in serum phosphate levels [4]: up to 60% | acute toxicity relative to iron sucrose [5]: one-fifth | tissue distribution after intravenous administration ([6]; iv): mainly found in the liver, spleen, and bone marrow | projected calculated terminal half-life (t1/2) [6]: approximately 16 hours | clastogenicity, mutagenicity, chromosomal damage or bone marrow cell toxicity [7]: no evidence | safe and tolerated single intravenous dose, as multiple of the equivalent of 1,000 mg iron once weekly in humans [8]: up to 60 times | mean changes in phosphate with respect to baseline (FIG. 1) ([9]; Days 7, 14, 28, 56, trial VIT30): decreased with respect to baseline values | incidence of serum phosphate<2.0 mg/dL ([9]; chronic kidney disease trial of 2500 patients, 120 days of follow-up (see Example 2)): 18.5% | proportion of subjects with PCS low phosphorus ([9]; treatment-emergent potentially clinically significant value): 18.5%
